# Results reported in patent US20230322771A1, “HETEROCYCLIC GLP-1 AGONISTS” (Gasherbrum Bio, Inc., priority 2020, published 2023).
# Target: GLP-1 Receptor (Homo sapiens, UniProt P43220)
# Assay: GLP-1R agonist cAMP stimulation assay (HEK293/GLP1R/CRE-LUC cells, HTRF cAMP dynamic 2 kit)
# Type: cell-based
# Settings: HEK293/CRE-Luc cell line (HDB) stably expressing GLP-1 Receptor; 30 min incubation at 37° C.; read-out: GLP1R cAMP Stimulation DR: EC50 (nM) [Species: Human, Assay Cell Line: HDB]
# Description: Activation of GLP-1 receptor is known to stimulate cyclic AMP (cAMP) production in cells which indicates primary coupling to the Gαs subunit of the G protein heterotrimeric complex.
# To optimize functional activity directed toward Gαs coupling, a HEK293/CRE-Luc cell line developed by HDB stably expressing the GLP-1 Receptor was used. 200× concentration of compound working solutions were prepared (Agilent Technologies Bravo) with ½ log serial dilution in 384-well Echo LDV plate (Labcyte, Cat #LP-0200). 50 nL/well 200× concentration of compound working solutions were moved to 384-well white low volume plate (Greiner, Cat #784075) using Labcyte ECHO550. 1×10^5 cells/mL HEK293/GLP1R/CRE-LUC(HD Biosciences) cell suspensions prepared with assay buffer[DPBS containing 0.5 mM IBMX(Sigma, Cat #15879) and 0.1% BSA(GENVIEW, Cat #FA016-100 g)], 10 uL cell suspensions were added to each well of previous generated assay plate which already contains 50 nl compound at 200× concentration using ThermoFisher Multidrop Combi(1000 cells/well). Seal the plate and incubate at 37° C. with 5% CO2 for 30 min.
# After incubation the cAMP assay signal was generated using cAMP dynamic 2 Kit (Cisbio). 5 μL cAMP-d2 working solution was added to each well, followed with 5 μL Anti-cAMP antibody-cryptate working solution added to each well using ThermoFisher Multidrop Combi. Incubate at room temperature for 1 hour protected from light. Read the fluorescence at 665 and 615 nm with Reader PerkinElmer EnVision.
# % Activity=100%×(mean RLU of test sample−mean RLU of vehicle control)/(mean RLU of MAX control−mean RLU of vehicle control))
# Chain of GLP-1 Receptor (P43220 24-463): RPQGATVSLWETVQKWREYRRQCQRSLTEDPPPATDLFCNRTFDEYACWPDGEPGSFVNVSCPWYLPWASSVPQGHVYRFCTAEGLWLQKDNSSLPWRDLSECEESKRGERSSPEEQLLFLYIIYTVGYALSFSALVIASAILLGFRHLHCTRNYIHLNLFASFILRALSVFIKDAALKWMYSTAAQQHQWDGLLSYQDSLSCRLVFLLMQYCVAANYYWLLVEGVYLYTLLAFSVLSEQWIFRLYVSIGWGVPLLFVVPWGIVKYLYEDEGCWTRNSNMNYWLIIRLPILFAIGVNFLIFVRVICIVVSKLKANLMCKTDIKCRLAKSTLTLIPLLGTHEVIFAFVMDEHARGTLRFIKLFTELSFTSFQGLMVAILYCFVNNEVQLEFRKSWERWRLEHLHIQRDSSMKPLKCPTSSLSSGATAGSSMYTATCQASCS
compound,measurement,value
"CCS(=O)(=O)C(C)c1ccc(-n2ccn(-c3c4c(nn3-c3cc(C)c(F)c(C)c3)CCN(C(=O)c3cc5cc(C6CCOCC6)ccc5n3[C@@]3(c5noc(=O)[nH]5)C[C@@H]3C)[C@H]4C)c2=O)c(F)c1 (stereo partly drawn) [Compound 111a, 3-((1S,2S)-1-(2-((4S)-3-(3-(4-(1-(ethylsulfonyl)ethyl)-2-fluorophenyl)-2-oxo-2,3-dihydro-1H-imidazol-1-yl)-2-(4-fluoro-3,5-dimethylphenyl)-4-methyl-4,5,6,7-tetrahydro-2H-pyrazolo[4,3-c]pyridine-5-carbonyl)-5-(tetrahydro-2H-pyran-4-yl)-1H-indol-1-yl)-2-methylcyclopropyl)-1,2,4-oxadiazol-5(4H)-one]",EC50,0.32 nM
